In ChEMBL document CHEMBL1201862, “PubChem BioAssay data set” (2004):
Calls of active or inactive are those of the source.

What was measured:
[1] = Trypanosoma cruzi growth suppression in host cells – NIH3T3 host cells, beta-gal luminescence, confirmation (AID 2044); type: functional, cell-based;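 also: intracellular parasites grown in NIH/3T3 mouse fibroblasts as host cells; luminescent beta-galactosidase reporter signal from transgenic T. cruzi replicating inside host cells; inhibitors lower the luminescence signal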
[2] = NIH3T3 cell viability loss – ATP luminescence, mouse fibroblasts, counter-screen, dose response (AID 2010); type: functional, cell-based;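 also: cells exposed to compound for about 90 hours before reading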
[3] = target: T1, High affinity choline transporter 1 (Homo sapiens, UniProt Q9GZV3); experiment: human choline transporter blockers, potency – cell-based, 5-point CRC, membrane potential dye, dose response (AID 504840); type: functional
T1 sequence (Q9GZV3 whole entry): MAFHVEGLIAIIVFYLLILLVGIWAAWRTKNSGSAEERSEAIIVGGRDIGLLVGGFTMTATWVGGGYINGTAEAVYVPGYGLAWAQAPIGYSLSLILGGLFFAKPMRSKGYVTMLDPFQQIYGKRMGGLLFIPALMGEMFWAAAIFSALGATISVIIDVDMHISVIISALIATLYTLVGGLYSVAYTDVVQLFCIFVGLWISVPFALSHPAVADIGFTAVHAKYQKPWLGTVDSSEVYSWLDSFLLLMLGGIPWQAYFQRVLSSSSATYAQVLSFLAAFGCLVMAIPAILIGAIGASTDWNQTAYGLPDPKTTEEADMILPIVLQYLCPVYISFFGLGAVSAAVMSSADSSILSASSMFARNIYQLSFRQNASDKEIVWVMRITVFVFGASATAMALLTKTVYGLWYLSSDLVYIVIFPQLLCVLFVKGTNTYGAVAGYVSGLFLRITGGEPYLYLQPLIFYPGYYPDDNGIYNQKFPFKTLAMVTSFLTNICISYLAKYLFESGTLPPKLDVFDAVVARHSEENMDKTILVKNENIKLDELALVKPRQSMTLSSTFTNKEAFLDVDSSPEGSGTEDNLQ

[4] = target: T1, High affinity choline transporter 1; experiment: human choline transporter blockers, potency – cell-based, 10-point CRC, membrane potential dye, dose response (AID 588401); type: functional;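 also: membrane potential dye fluorescence of choline-evoked depolarization via CHT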
[5] = target: Melanin-concentrating hormone receptor 1 (Homo sapiens, UniProt Q99705); experiment: Late-stage fluorescence-based counterscreen for antagonists of the G-protein coupled receptor 7 (GPR7): cell-based dose response assay to identify antagonists of the melanin-concentrating hormone receptor 1 (MCHR1) Set 6.; type: functional
[6] = target: Neuropeptides B/W receptor type 1 (Homo sapiens, UniProt P48145); experiment: human NPBW1 receptor blockade, IC50 – cell-based, fluorescence, dose response, set 6, late-stage follow-up (AID 588583); type: functional
[7] = target: Ribosomal protein S6 kinase alpha-3 (Homo sapiens, UniProt P51812); type: functional;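 also: measured within a kinome-wide profiling panel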
[8] = target: Tyrosine-protein kinase JAK2 (Homo sapiens, UniProt O60674); type: functional;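 also: JAK2 tested as one member of a kinase panel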
[9] = target: Protein kinase C zeta type (Homo sapiens, UniProt Q05513); type: functional;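 also: measured as one member of a broad kinase profiling panel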
[10] = target: Serine/threonine-protein kinase PLK3 (Homo sapiens, UniProt Q9H4B4); type: functional
[11] = target: RAC-gamma serine/threonine-protein kinase (Homo sapiens, UniProt Q9Y243); type: functional
[12] = target: 5'-AMP-activated protein kinase catalytic subunit alpha-1 (Homo sapiens, UniProt Q13131); type: functional
[13] = target: Protein kinase C delta type (Homo sapiens, UniProt Q05655); type: functional
[14] = target: Serine/threonine-protein kinase PLK4 (Homo sapiens, UniProt O00444); type: functional;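 also: PLK4 measured as one member of a kinome-wide kinase profiling panel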
[15] = target: Ribosomal protein S6 kinase beta-1 (Homo sapiens, UniProt P23443); type: functional;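 also: measured as one member of a kinome-wide profiling panel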
[16] = target: Death-associated protein kinase 3 (Homo sapiens, UniProt O43293); type: functional;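 also: measured as one member of a kinome-wide profiling panel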
[17] = target: Serine/threonine-protein kinase Chk2 (Homo sapiens, UniProt O96017); type: functional;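 also: CHEK2 entry within a kinome-wide screening panel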
[18] = target: Mitogen-activated protein kinase 8 (Homo sapiens, UniProt P45983); type: functional;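 also: value comes from one member of a kinome-wide kinase profiling panel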
[19] = target: Serine/threonine-protein kinase pim-1 (Homo sapiens, UniProt P11309); type: functional
Aurora kinase A = Aurora kinase A (Homo sapiens, UniProt O14965); type: functional;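 also: value from the Navigating the Kinome kinase panel profiling, panel entry STK6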
[20] = target: MAP kinase-activated protein kinase 2 (Homo sapiens, UniProt P49137); type: functional;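 also: measured as one member of a kinome-wide kinase panel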
[21] = target: Casein kinase II subunit alpha (Homo sapiens, UniProt P68400); type: functional
[22] = target: Serine/threonine-protein kinase PAK 4 (Homo sapiens, UniProt O96013); type: functional;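 also: value obtained within a kinome profiling panel in which PAK4 was one of the panel members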
[23] = target: Serine/threonine-protein kinase PAK 1 (Homo sapiens, UniProt Q13153); type: functional
[24] = target: Fibroblast growth factor receptor 1 (Homo sapiens, UniProt P11362); type: functional
[25] = target: Tyrosine-protein kinase JAK3 (Homo sapiens, UniProt P52333); type: functional
[26] = target: Mitogen-activated protein kinase 9 (Homo sapiens, UniProt P45984); type: functional;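 also: value from a kinome panel profiling assay, MAPK9 panel entry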
LIM domain kinase 1 = LIM domain kinase 1 (Homo sapiens, UniProt P53667); experiment: Navigating the Kinome. Panel member name: LIMK1; type: functional
[27] = target: Tyrosine-protein kinase Blk (Homo sapiens, UniProt P51451); type: functional;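 also: obtained as one member of a kinome-wide kinase assay panel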
[28] = target: MAP/microtubule affinity-regulating kinase 3 (Homo sapiens, UniProt P27448); type: functional;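 also: MARK3 affinity measured as one member of a kinome panel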
Insulin receptor = Insulin receptor (Homo sapiens, UniProt P06213); type: functional;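 also: insulin receptor kinase tested as one member of a kinome-wide kinase panel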
[29] = target: Protein kinase C gamma type (Homo sapiens, UniProt P05129); type: functional
[30] = target: Proto-oncogene tyrosine-protein kinase Src (Homo sapiens, UniProt P12931); type: functional;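 also: SRC entry within a kinome-wide kinase profiling panel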
[31] = target: Glycogen synthase kinase-3 alpha (Homo sapiens, UniProt P49840); type: functional;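 also: GSK3A result taken from a broad kinome-wide kinase panel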
[32] = target: Inhibitor of nuclear factor kappa-B kinase subunit alpha (Homo sapiens, UniProt O15111); type: functional
[33] = target: MAP kinase-activated protein kinase 3 (Homo sapiens, UniProt Q16644); type: functional;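 also: value comes from a kinome-wide profiling panel in which MAPKAPK3 is one of the panel members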
[34] = target: Serine/threonine-protein kinase Chk1 (Homo sapiens, UniProt O14757); type: functional;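 also: measured as one member of a kinome-wide kinase profiling panel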
[35] = target: Casein kinase I isoform delta (Homo sapiens, UniProt P48730); type: functional;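 also: measured as one member (CSNK1D) of a kinome panel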
[36] = target: Vascular endothelial growth factor receptor 2 (Homo sapiens, UniProt P35968); type: functional
[37] = target: Cyclin-dependent kinase 5 (Homo sapiens, UniProt Q00535); type: functional;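 also: CDK5 measured as one member of a kinase profiling panel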
[38] = target: Mitogen-activated protein kinase 1 (Homo sapiens, UniProt P28482); type: functional
Aurora kinase B = Aurora kinase B (Homo sapiens, UniProt Q96GD4); type: functional
[39] = target: Interleukin-1 receptor-associated kinase 4 (Homo sapiens, UniProt Q9NWZ3); type: functional
[40] = target: RAC-alpha serine/threonine-protein kinase (Homo sapiens, UniProt P31749); type: functional;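 also: AKT1 affinity measured as one member of a kinome-wide kinase profiling panel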
[41] = target: Vascular endothelial growth factor receptor 3 (Homo sapiens, UniProt P35916); type: functional;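 also: value from a kinome-wide profiling panel, with FLT4 as the panel member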
[42] = target: Rho-associated protein kinase 1 (Homo sapiens, UniProt Q13464); type: functional;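 also: measured within a broad kinome-wide panel profiling many kinases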
[43] = target: Calcium/calmodulin-dependent protein kinase type 1 (Homo sapiens, UniProt Q14012); type: functional
[44] = target: Cyclin-dependent kinase 1 (Homo sapiens, UniProt P06493); type: functional;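 also: Kinome-wide panel profiling, with the target listed as panel member CDC2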
[45] = target: 3-phosphoinositide-dependent protein kinase 1 (Homo sapiens, UniProt O15530); type: functional;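 also: value comes from the Navigating the Kinome panel, PDPK1 member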
[46] = target: Serine/threonine-protein kinase Nek2 (Homo sapiens, UniProt P51955); type: functional
[47] = target: Serine/threonine-protein kinase PLK1 (Homo sapiens, UniProt P53350); type: functional;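 also: PLK1 measured as one member of a kinome-wide profiling panel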
[48] = target: Glycogen synthase kinase-3 beta (Homo sapiens, UniProt P49841); type: functional;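 also: value comes from a broad kinome profiling panel, with GSK3B as the panel member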
[49] = target: BDNF/NT-3 growth factors receptor (Homo sapiens, UniProt Q16620); type: functional;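 also: NTRK2 measured as one member of a broad kinome-wide kinase profiling panel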
[50] = target: Receptor tyrosine-protein kinase erbB-4 (Homo sapiens, UniProt Q15303); type: functional;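 also: ERBB4 member of a kinome-wide kinase profiling panel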
[51] = target: cAMP-dependent protein kinase catalytic subunit alpha (Homo sapiens, UniProt P17612); type: functional
[52] = target: Mitogen-activated protein kinase 12 (Homo sapiens, UniProt P53778); type: functional;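 also: measured as one member of a kinome-wide kinase profiling panel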
[53] = target: Serine/threonine-protein kinase MRCK alpha (Homo sapiens, UniProt Q5VT25); type: functional
[54] = target: Dual specificity tyrosine-phosphorylation-regulated kinase 1A (Homo sapiens, UniProt Q13627); type: functional;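 also: measured against DYRK1A as one member of a broad kinome profiling panel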
[55] = target: Inhibitor of nuclear factor kappa-B kinase subunit beta (Homo sapiens, UniProt O14920); type: functional
[56] = target: Serine/threonine-protein kinase 3 (Homo sapiens, UniProt Q13188); type: functional;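 also: measured as one member of a kinome-wide kinase panel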

Sequence of Proto-oncogene tyrosine-protein kinase Src (P12931 2-536 limits assumed): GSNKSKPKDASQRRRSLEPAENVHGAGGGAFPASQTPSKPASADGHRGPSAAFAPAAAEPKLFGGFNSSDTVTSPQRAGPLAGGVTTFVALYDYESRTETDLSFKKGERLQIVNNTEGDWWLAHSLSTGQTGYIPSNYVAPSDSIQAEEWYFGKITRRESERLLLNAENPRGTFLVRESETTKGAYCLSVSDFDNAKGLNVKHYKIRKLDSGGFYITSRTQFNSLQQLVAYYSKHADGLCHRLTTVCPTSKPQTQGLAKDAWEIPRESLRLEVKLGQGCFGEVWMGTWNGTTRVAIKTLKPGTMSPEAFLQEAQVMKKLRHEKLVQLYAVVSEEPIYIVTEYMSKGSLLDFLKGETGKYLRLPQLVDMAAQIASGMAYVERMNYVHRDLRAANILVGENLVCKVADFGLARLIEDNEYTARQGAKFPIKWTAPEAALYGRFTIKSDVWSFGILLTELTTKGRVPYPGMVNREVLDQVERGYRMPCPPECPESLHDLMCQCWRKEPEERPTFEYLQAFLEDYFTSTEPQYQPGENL
Sequence of MAP kinase-activated protein kinase 2 (P49137 whole entry): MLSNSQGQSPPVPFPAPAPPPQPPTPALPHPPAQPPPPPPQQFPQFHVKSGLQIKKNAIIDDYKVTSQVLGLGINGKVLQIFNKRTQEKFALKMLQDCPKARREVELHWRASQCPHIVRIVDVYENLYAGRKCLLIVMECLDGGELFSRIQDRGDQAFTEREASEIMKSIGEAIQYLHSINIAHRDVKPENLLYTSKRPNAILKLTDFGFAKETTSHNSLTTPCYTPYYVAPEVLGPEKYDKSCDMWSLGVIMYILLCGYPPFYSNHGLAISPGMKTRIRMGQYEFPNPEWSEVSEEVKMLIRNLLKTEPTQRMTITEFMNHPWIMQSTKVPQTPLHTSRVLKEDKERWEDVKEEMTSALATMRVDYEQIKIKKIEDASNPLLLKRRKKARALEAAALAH
Sequence of Rho-associated protein kinase 1 (Q13464 whole entry): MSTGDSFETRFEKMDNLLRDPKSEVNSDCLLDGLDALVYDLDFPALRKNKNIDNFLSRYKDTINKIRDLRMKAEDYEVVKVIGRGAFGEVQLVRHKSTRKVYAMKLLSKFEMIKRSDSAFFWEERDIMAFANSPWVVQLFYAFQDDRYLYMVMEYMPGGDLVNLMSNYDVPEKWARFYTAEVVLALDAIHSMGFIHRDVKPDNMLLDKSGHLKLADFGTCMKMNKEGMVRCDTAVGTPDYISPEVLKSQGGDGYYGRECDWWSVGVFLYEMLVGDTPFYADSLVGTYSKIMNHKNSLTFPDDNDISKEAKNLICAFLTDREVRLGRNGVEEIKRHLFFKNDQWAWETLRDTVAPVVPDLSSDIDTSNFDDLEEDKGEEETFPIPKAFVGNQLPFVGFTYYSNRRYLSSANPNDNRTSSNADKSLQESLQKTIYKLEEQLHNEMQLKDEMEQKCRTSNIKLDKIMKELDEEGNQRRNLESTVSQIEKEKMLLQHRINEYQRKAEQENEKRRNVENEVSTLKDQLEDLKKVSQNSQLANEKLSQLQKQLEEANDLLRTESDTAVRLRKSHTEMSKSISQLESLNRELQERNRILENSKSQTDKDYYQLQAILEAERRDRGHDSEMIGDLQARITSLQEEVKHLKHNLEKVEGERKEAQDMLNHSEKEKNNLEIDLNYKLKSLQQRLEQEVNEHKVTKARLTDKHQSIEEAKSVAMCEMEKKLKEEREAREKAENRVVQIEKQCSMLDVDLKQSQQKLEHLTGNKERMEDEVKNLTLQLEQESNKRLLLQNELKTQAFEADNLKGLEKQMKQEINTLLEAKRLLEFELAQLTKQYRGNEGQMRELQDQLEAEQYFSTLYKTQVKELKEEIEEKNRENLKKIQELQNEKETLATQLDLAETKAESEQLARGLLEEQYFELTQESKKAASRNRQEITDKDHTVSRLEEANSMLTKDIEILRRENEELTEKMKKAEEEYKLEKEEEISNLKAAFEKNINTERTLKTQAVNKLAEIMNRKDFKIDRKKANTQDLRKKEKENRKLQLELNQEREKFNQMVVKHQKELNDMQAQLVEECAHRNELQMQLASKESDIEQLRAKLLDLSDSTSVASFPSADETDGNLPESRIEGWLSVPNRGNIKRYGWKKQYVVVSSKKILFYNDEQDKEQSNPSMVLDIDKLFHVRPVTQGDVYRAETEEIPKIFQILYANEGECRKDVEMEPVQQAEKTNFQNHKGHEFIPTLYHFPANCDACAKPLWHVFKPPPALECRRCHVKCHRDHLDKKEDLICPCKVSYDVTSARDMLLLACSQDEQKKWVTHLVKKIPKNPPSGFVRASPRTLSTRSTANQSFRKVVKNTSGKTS
Sequence of Calcium/calmodulin-dependent protein kinase type 1 (Q14012 whole entry): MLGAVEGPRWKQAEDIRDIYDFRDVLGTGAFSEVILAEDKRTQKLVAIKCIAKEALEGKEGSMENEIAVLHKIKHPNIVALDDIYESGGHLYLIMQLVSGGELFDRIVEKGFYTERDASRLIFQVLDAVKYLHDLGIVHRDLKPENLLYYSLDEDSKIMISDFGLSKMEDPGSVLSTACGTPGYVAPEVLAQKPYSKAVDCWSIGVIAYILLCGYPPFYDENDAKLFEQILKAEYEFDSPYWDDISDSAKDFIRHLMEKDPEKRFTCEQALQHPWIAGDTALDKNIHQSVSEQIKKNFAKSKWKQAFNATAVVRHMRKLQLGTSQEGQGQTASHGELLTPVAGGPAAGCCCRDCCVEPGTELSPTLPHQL
Sequence of Serine/threonine-protein kinase Chk2 (O96017 whole entry): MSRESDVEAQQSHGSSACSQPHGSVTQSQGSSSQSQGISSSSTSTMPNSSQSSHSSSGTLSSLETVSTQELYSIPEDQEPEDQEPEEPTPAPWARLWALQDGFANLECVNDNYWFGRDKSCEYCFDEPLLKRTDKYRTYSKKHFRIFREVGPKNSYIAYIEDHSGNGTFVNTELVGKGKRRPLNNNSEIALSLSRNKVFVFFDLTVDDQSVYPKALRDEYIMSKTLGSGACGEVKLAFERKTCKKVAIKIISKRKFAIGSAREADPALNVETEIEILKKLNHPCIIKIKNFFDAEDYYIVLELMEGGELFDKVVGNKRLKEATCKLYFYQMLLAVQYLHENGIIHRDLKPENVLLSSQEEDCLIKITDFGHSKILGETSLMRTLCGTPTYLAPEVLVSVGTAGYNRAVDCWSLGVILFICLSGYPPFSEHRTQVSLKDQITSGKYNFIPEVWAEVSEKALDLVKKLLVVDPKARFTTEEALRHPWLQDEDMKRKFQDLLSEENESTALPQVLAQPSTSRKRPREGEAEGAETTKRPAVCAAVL
Sequence of Serine/threonine-protein kinase Chk1 (O14757 whole entry, canonical isoform): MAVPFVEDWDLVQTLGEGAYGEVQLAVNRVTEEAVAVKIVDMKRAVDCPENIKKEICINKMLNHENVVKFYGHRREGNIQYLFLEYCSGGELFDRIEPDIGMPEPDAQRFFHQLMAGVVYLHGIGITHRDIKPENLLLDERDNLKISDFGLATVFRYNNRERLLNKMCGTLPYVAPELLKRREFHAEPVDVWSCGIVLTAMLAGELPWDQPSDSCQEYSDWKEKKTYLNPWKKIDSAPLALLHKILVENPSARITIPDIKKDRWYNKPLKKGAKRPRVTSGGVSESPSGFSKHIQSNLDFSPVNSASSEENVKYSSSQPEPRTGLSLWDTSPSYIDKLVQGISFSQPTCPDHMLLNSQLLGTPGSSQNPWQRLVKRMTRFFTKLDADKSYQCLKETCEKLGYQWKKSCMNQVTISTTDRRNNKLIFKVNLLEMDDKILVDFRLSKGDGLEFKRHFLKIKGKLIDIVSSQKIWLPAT
Sequence of Death-associated protein kinase 3 (O43293 whole entry): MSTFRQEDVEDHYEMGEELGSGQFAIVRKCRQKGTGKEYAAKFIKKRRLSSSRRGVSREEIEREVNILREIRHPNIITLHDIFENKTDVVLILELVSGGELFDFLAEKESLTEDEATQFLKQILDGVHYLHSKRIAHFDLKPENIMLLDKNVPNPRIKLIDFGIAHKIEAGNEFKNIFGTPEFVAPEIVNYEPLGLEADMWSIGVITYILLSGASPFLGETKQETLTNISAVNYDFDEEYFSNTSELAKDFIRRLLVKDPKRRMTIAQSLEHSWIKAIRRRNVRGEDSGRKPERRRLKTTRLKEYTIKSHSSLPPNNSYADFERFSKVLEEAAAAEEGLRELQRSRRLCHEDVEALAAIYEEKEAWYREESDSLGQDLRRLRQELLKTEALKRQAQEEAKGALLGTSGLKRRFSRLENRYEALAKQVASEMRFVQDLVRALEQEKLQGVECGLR
Sequence of Serine/threonine-protein kinase pim-1 (P11309 whole entry): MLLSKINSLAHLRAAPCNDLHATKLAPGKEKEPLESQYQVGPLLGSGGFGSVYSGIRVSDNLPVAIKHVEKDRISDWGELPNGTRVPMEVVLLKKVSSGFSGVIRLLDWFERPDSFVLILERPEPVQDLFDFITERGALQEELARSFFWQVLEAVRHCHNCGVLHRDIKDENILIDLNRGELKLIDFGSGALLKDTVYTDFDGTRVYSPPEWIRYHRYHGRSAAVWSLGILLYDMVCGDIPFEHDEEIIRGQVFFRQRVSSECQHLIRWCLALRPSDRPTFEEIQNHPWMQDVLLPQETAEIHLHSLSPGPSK
Sequence of Serine/threonine-protein kinase Nek2 (P51955 whole entry): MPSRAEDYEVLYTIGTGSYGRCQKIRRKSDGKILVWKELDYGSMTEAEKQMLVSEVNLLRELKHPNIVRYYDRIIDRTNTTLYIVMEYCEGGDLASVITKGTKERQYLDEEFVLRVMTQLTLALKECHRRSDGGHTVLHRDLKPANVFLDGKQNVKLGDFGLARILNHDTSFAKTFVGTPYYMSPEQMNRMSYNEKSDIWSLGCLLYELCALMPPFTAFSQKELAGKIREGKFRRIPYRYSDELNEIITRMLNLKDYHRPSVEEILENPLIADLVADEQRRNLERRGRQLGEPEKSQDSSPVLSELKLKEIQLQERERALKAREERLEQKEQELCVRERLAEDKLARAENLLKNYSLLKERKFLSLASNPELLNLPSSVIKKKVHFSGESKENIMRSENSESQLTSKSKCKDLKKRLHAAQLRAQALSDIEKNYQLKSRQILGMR

CCOCCCN(C)C1CCN(C(=O)c2oc3ccccc3c2NC(=O)c2ccc(F)cc2)CC1
EC50 [1]: 0.267 µM (active)
EC50 [2]: > 60 µM (not active)
IC50 [3]: 6.85 µM (active)
IC50 [4]: 6.69 µM (active)

Cc1ccccc1C(C#N)c1c(Cl)cnn(Cc2cccc3ccccc23)c1=O (stereo not given)
IC50 [5]: 0.821 µM (active)
IC50 [6]: 0.821 µM (active)

CCCCCCCCCCCCOc1ccc(NC(=N)N)cc1NC(=N)N [LAUROGUADINE]
Ki [7]: 3.98 µM (active)
Ki [8]: 1 µM (active)
Ki [9]: 1.26 µM (active)
Ki [10]: > 7.94 µM (inactive)
Ki [11]: > 10 µM (inactive)
Ki [12]: > 10 µM (inactive)
Ki [13]: 0.631 µM (active)
Ki [14]: > 3.98 µM (inactive)
Ki [15]: 1.26 µM (active)
Ki [16]: 0.316 µM (active)
Ki [17]: > 10 µM (inactive)
Ki [18]: > 3.16 µM (inactive)
Ki [19]: 1.26 µM (active)
Ki (Aurora kinase A): > 6.31 µM (inactive)
Ki [20]: 3.98 µM (active)
Ki [21]: > 6.31 µM (inactive)
Ki [22]: > 5.01 µM (inactive)
Ki [23]: 1.26 µM (active)
Ki [24]: > 5.01 µM (inactive)
Ki [25]: 0.794 µM (active)
Ki [26]: > 3.98 µM (inactive)
Ki (LIM domain kinase 1): 2 µM (active)
Ki [27]: 1 µM (active)
Ki [28]: > 6.31 µM (inactive)
Ki (Insulin receptor): > 5.01 µM (inactive)
Ki [29]: 2.51 µM (active)
Ki [30]: > 5.01 µM (inactive)
Ki [31]: > 7.94 µM (inactive)
Ki [32]: 1.26 µM (active)
Ki [33]: 1.58 µM (active)
Ki [34]: > 7.94 µM (inactive)
Ki [35]: > 7.94 µM (inactive)
Ki [36]: > 7.94 µM (inactive)
Ki [37]: > 10 µM (inactive)
Ki [38]: > 7.94 µM (inactive)
Ki (Aurora kinase B): > 6.31 µM (inactive)
Ki [39]: 3.98 µM (active)
Ki [40]: 3.98 µM (active)
Ki [41]: > 6.31 µM (inactive)
Ki [42]: 2.51 µM (active)
Ki [43]: 3.98 µM (active)
Ki [44]: 3.98 µM (active)
Ki [45]: > 3.98 µM (inactive)
Ki [46]: > 10 µM (inactive)
Ki [47]: > 7.94 µM (inactive)
Ki [48]: > 6.31 µM (inactive)
Ki [49]: 2 µM (active)
Ki [50]: 1.58 µM (active)
Ki [51]: > 7.94 µM (inactive)
Ki [52]: > 6.31 µM (inactive)
Ki [53]: 2.51 µM (active)
Ki [54]: > 6.31 µM (inactive)
Ki [55]: > 3.16 µM (inactive)
Ki [56]: 3.98 µM (active)
